“Also recorded” adds a separate entry of the source.
Assays:
[1] = system: c-myc mRNA; conditions: HL-60 cells; cited from earlier work
[2] = Serum 25(OH)D3 levels (radioimmunoassay); assay type: in vivo, Male albino Fisher-344 rats; conditions: for Serum Levels 25(OH)D3: mean ± S.E.M., n=6
Text: (§1) Male albino Fisher-344 rats, initially weighing ~90-100 g, were used in these studies. On arrival, the animals were quarantined for 1 wk and then randomly divided into the following six test groups: groups 1 and 2, standard vitamin D-sufficient diet; groups 3 and 4, standard diet supplemented with RO24-5531 (2.50 nmol/kg of feed); and groups 5 and 6, standard vitamin D-sufficient diet. […] Next, the rats in groups 2,4 and 6 were given subcutaneous injections of azoxymethane (AOM, Sigma Chemical Co., St. Louis, Mo.), 15 mg/kg body wt once a wk for 2 wks, while the rats in groups 1,3 and 5 received AOM-vehicle (saline).
(§2) Groups 1 and 2 were then maintained on the standard diet for an additional […]. Groups 3 and 4 were maintained on the RO24-5531 supplemented diets for the initial five wks and then switched to the standard diet without RO24-5531 for an additional 29 wks (initiation arm), whereas groups 5 and 6 were maintained on the standard diet without supplemental RO24-5531 for the initial five wks and then switched to the RO24-5531 supplemented diet for an additional 29 wks (post-initiation arm).
(§3) All rats were sacrificed in the non-fasting state after 34 wks on these protocols between 9 a.m. and 11 a.m. and sera obtained for measurement of calcium, phosphate, 25(OH)D3 and 1α,25(OH)2 D3 levels. The rats' colons were removed, opened, washed with normal saline and examined macroscopically for the presence of tumors. Resected tumors were weighed, and were fixed in 10% buffered formalin for microscopic examination. After formalin fixation, tissue specimens were paraffin-embedded, sectioned, and stained with hematoxylin and eosin as described previously (Sitrin et al., 1991), for light microscopic examination. All specimens were evaluated by a pathologist who was unaware of the dietary or AOM treatment history. Macroscopic and microscopic lesions were classified as either benign (adenoma) or malignant (adenocarcinoma).
(§4) Serum calcium and phosphorus were measured by standard colorimetric methods (Kessler and Wolfman, Clin. Chem. 10:686-703, 1964). Serum 25(OH)D3 levels were measured by radioimmunoassay, using a kit and procedure supplied by Incstar (Stillwater, Minn.). Serum 1α,25(OH)2 D3 levels were assayed by a non-equilibrium competitive protein-binding assay based on a calf thymus receptor, using a kit and procedure supplied by Incstar, as previously described (Sitrin et al., 1991).
(§5) Results are expressed as means ±SE of n determinations. Data were analyzed by Fisher's exact test (two-tailed) or analysis of variance (ANOVA) as appropriate (Snedecor and Cochran, Statistical Methods, 1980). Values of p <0.05 were considered statistically significant.

[3] = Serum 1α,25(OH)2 D3 levels (competitive protein-binding assay, calf thymus receptor); assay type: in vivo, Male albino Fisher-344 rats; conditions: all test groups
Text: as §1, with “(saline). […]” for “(saline).”
All rats were sacrificed in the non-fasting state after 34 wks on these protocols between 9 a.m. and 11 a.m. and sera obtained for measurement of calcium, phosphate, 25(OH)D3 and 1α,25(OH)2 D3 levels. […] All specimens were evaluated by a pathologist who was unaware of the dietary or AOM treatment history. […]
Serum calcium and phosphorus were measured by standard colorimetric methods (Kessler and Wolfman, Clin. Chem. 10:686-703, 1964). Serum 25(OH)D3 levels were measured by radioimmunoassay, using a kit and procedure supplied by Incstar (Stillwater, Minn.). […]
Results are expressed as means ±SE of n determinations. Data were analyzed by Fisher's exact test (two-tailed) or analysis of variance (ANOVA) as appropriate (Snedecor and Cochran, Statistical Methods, 1980). […]

[4] = system: NMU-induced breast cancers; conditions: cited from earlier work
[5] = system: HL-60 cells; conditions: cited from earlier work
[6] = system: AOM-induced colonic tumors; assay: AOM-induced colonic tumor formation with dietary RO24-5531; assay type: in vivo, Male albino Fisher-344 rats; conditions: for inhibition of development of colonic tumors / colon cancer incidence: AOM model, dietary supplementation
Description: FIG. 2. Study Protocol: Rats (12 each, in groups 1,3 and 5; 20 each, in groups 2,4 and 6) were fed either standard diet without RO24-5531 (open bars), or RO24-5531 supplemented diets (shaded bars) for the initial five weeks of the study. During this period rats were given two weekly subcutaneous injections of either AOM (15 mg/kg body wt/wk) (groups 2,4 or 6), or AOM-vehicle (saline) (groups 1,3, or 5) at the end of weeks 2 and 3 (arrows). At the end of five weeks, rats in groups 1-2 were continued on the standard diet without RO24-5531; groups 3-4 were switched to standard diet without RO24-5531; and groups 5-6 were switched to the RO24-5531 supplemented diet for another 29 weeks.
RO24-5531 was provided by Hoffmann LaRoche Inc. (Nutley, NJ; EP 580968). All diets were obtained from ICN Biochemicals (Cleveland, Ohio). Prior to pelleting, RO24-5531 or vehicle (0.1% ethanol) were mixed with the standard vitamin D-sufficient diet by ICN Biochemicals. This diet has been described in detail (Sitrin et al., 1991) and contained a normal content of calcium and phosphorus, 0.87% and 0.60%, respectively, with 2.2 IU of vitamin D3 /g of feed.
as §1, §2, §3, §5

[7] = Body weight / growth and tolerability of the animals; assay type: in vivo; conditions: for Final Wt.: mean ± S.E.M.
Text: as §1, §2, §3, §5

[8] = Serum calcium (standard colorimetric method); assay type: in vivo, Male albino Fisher-344 rats; conditions: for hypercalcemia or alterations in serum levels: dietary supplementation, serum phosphorus, 25(OH)D3, 1,25(OH)2D3 also named; for Serum Levels Cas+: mean ± S.E.M.
Text: as §1, §2, §3, §4, §5

[9] = breast tumor study; cited from earlier work
[10] = group 4: RO24-5531/SD (initiation arm), AOM
[11] = group 6: SD/RO24-5531 (post-initiation arm), AOM
[12] = listed as 1α,25-dihydroxy-16-ene-23-yne-26,27-hexafluorocholecalciferol
[13] = group 3: RO24-5531/SD, no AOM, 12 animals
[14] = group 4: RO24-5531/SD (initiation arm), AOM, 20 animals
[15] = group 4: RO24-5531/SD (initiation arm), AOM, 20 animals, p < 0.05 vs group 2
[16] = group 5: SD/RO24-5531, no AOM, 12 animals
[17] = group 6: SD/RO24-5531 (post-initiation arm), AOM, 20 animals

C=C1/C(=C\C=C2/CCC[C@]3(C)C([C@H](C)CC#CC(O)(C(F)(F)F)C(F)(F)F)=CC[C@@H]23)C[C@@H](O)C[C@@H]1O [RO24-5531, 26,26,26,27,27,27-hexafluoro-1α,25-dihydroxy-16-ene-23-yne-cholecalciferol]
c-myc mRNA expression [1]: decrease c-myc mRNA expression in HL-60 cells
Serum Levels 25(OH)D3 ([2]; group 3: RO24-5531/SD, no AOM): 31 ± 2 ng/mL
Serum Levels 25(OH)D3 [2, 10]: 29 ± 2 ng/mL
Serum Levels 25(OH)D3 ([2]; group 5: SD/RO24-5531, no AOM): 33 ± 4 ng/mL
Serum Levels 25(OH)D3 [2, 11]: 36 ± 5 ng/mL
effect on serum levels of 25(OH)D3 ([2]; groups 4 and 6): significantly altered the serum levels of calcium, phosphorus or 25(OH)D3
effect on serum 1α,25(OH)2 D3 levels [3]: no differences were observed
protection against NMU-induced breast cancers ([4]; fed after administration of carcinogen): protected against the development of NMU-induced breast cancers
breast tumor incidence ([4]; in vivo): lessened tumor incidence
breast tumor latency ([4]; in vivo): extended breast tumor latency
breast tumor number ([4]; in vivo): lessened tumor incidence as well as tumor number
induction of differentiation [5]: induction of differentiation
inhibition of proliferation [5]: inhibit proliferation of HL-60 cells; also recorded: inhibition of proliferation
inhibition of development of colonic tumors / colon cancer incidence ([6]; listed as 1α, 25-Dihydroxy-16-ene-23-yne-26, 27-hexafluorocholecalciferol): reduced the incidence of colon cancer in rats
inhibition of development of colonic tumors / colon cancer incidence [6, 12]: can inhibit the development of colonic tumors in mammals; also recorded: can inhibit the development of colonic tumors in the AOM model
development of tumors ([6]; AOM-vehicle, RO24-5531 supplemented diets (groups 3, 5)): None of the control animals given injections of the AOM-vehicle and fed either the standard or RO24-5531 supplemented diets developed tumors
Tumors/Tumor Bearing rat ([6]; group 3: RO24-5531/SD, no AOM): 0
No. of Tumor-Bearing Rats [6, 13]: 0
No. of Tumors, Benign No. [6, 13]: 0
No. of Tumors, Malignant No. [6, 13]: 0
No. of Tumors, Total No. [6, 13]: 0
incidence of colonic tumors vs group 2 ([6]; group 4, initiation arm): significant decreases in the incidence of colonic tumors
tumor type ([6]; group 4, initiation arm): all of the colonic tumors in group 4 (initiation arm) were found to be benign, i.e., adenomas
Tumor Wt. [6, 10]: 102 ± 28 mg
Tumors/Tumor Bearing rat [6, 10]: 1.0
No. of Tumors, Benign No. [6, 14]: 3
No. of Tumors, Malignant No. [6, 14]: 0
No. of Tumor-Bearing Rats [6, 15]: 3
No. of Tumors, Total No. [6, 15]: 3
Tumor-Bearing Rats (% of Incidence) ([6]; group 4: RO24-5531/SD (initiation arm), AOM, p < 0.05 vs group 2 (50%)): 15%
Tumors/Tumor Bearing rat ([6]; group 5: SD/RO24-5531, no AOM): 0
No. of Tumor-Bearing Rats [6, 16]: 0
No. of Tumors, Benign No. [6, 16]: 0
No. of Tumors, Malignant No. [6, 16]: 0
No. of Tumors, Total No. [6, 16]: 0
tumor type ([6]; group 6, post-initiation arm): all of the colonic tumors were found to be adenomas
number of tumors vs AOM alone animals ([6]; group 6, post-initiation arm, p >0.05): a trend for a decrease in the number of tumors; also recorded: did not reach statistical significance
Tumor Wt. [6, 11]: 109 mg
Tumors/Tumor Bearing rat [6, 11]: 1.0
No. of Tumor-Bearing Rats [6, 17]: 6
No. of Tumors, Benign No. [6, 17]: 6
No. of Tumors, Malignant No. [6, 17]: 0
No. of Tumors, Total No. [6, 17]: 6
Tumor-Bearing Rats (% of Incidence) ([6]; group 6: SD/RO24-5531 (post-initiation arm), AOM, group 2: 50%): 30%
AOM-induced adenocarcinomas ([6]; post-initiation arm, like its initiation arm counterpart): complete absence of AOM-induced adenocarcinomas
influence on growth of the animals ([7]; RO24-5531 supplemental dietary regimens, all groups): neither the RO24-5531 supplemental dietary regimens, nor the administration of carcinogen influenced the growth of the animals
tolerability ([7]; dietary supplementation): well-tolerated by the animals
Final Wt. ([7]; group 3: RO24-5531 2.50 nmol/kg of feed for initial five wks, then SD, no AOM): 470 ± 20 g
Final Wt. ([7]; group 4: RO24-5531/SD (initiation arm), AOM treated): 465 ± 16 g
Final Wt. ([7]; group 5: SD/RO24-5531 (supplement for last 29 wks), no AOM): 511 ± 30 g
Final Wt. ([7]; group 6: SD/RO24-5531 (post-initiation arm), AOM treated): 499 ± 28 g
hypercalcemia or alterations in serum levels [8]: did not result in hypercalcemia
hypercalcemia or alterations in serum levels [8, 12]: does not induce hypercalcemia or alterations in the serum levels of phosphorus, 25(OH)D3, or 1,25(OH)2D3; also recorded: did not induce hypercalcemia or alterations in the serum levels of phosphorus, 25(OH)D3 or 1,25(OH)2D3
Serum Levels Cas+ ([8]; group 3: RO24-5531/SD, no AOM, n=10): 11.3 ± 0.1 mg/dL
Serum Levels Cas+ ([8]; group 4: RO24-5531/SD (initiation arm), AOM, n=6): 10.1 ± 0.4 mg/dL
Serum Levels Cas+ ([8]; group 5: SD/RO24-5531, no AOM, n=14): 10.3 ± 0.4 mg/dL
Serum Levels Cas+ ([8]; group 6: SD/RO24-5531 (post-initiation arm), AOM, n=8): 10.1 ± 0.5 mg/dL
effect on serum levels of calcium ([8]; groups 4 (initiation arm) and 6 (post-initiation arm)): significantly altered the serum levels of calcium, phosphorus or 25(OH)D3
serum Ca2+ levels [9]: without causing elevated levels of serum Ca^2+
